According to US20060100154A1, “Long-acting gonadotropin-releasing hormone analogs and methods of use thereof” (YEDA RESEARCH AND DEVELOPMENT CO, priority 2005, published 2006):
Square brackets hold non-standard residues; d marks the D form. Peptide text beside a SMILES is read from it. * marks the point of attachment. NQ = N-(2-chloro-1,4-naphthoquinonyl)-β-alanine, O=C1C(Cl)=C(NCCC(=O)*)C(=O)c2ccccc21; Glutaryl(OAqm) = O=C(CCCC(=O)*)OCc1ccc2c(c1)C(=O)c1ccccc1C2=O; X1 = O=C1c2cc(O)cc(O)c2C(=O)c2c(O)cc(C(=O)*)cc21; d(pGlu) = O=C1CC[C@H](C(=O)O)N1; pGlu = O=C1CC[C@@H](C(=O)O)N1; Emo = not defined here

How the values were obtained:
[1] = target: T1, rat pituitary GnRH receptors (Rattus norvegicus, UniProt P30969); assay: Displacement binding assay with 125I[D-Lys6]GnRH on rat pituitary membranes; conditions: for IC50: Table 3, estimated IC50, 125I-[D-Lys6]GnRH tracer; for binding affinity to GnRH receptors (in words): FIG. 11; for increase of binding affinity to GnRH receptors compared to the parent peptide: vs [D-Lys6]GnRH
T1 construct: from tissue; host or cells: rat pituitary membranes (Wistar-derived rats)
T1 sequence (P30969 1-327): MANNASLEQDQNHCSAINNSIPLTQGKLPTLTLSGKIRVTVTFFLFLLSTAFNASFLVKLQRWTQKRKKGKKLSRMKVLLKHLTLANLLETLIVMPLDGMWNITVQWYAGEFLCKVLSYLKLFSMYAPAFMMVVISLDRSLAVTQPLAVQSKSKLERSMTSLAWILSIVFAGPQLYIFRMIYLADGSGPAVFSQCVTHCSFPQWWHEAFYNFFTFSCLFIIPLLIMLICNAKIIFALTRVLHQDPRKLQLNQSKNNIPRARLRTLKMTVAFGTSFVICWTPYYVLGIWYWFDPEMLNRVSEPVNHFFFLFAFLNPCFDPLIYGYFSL
Experimental: Specific binding was calculated by subtracting the non-specific binding from the maximal binding, determined in the absence of any competing peptide. Results are the mean of two experiments carried out in triplicates. SEM values are omitted for clarity (FIG. 3).

αT3-1 cells [2] = assay: DNA fragmentation assay; type: cell-based, mouse; conditions: 10 μM, FIG. 10
Experimental: FIG. 10. DNA cleavage in cells treated with [D-Lys^6(Emo)]GnRH and emodic acid. αT3-1 cells were incubated; in darkness with 10 μM of the tested compounds, washed and illuminated. After 24 h of incubation DNA was isolated and analyzed by gel electrophoresis. Lanes 1, 3 and 5 represent DNA of cells treated with 1% DMSO in PBS, emodic acid or [D-Lys^6(Emo)]GnRH, respectively, followed by illumination. Lane 2, 4 and 6 represent cells treated with 1% DMSO in PBS, emodic acid, or [D-Lys^6(Emo)]GnRH, respectively, in darkness.
αT3-1 cells (×10^6/dish) were incubated in phenol red and serum free complete medium (37° C., 5% CO2) with the tested compounds for 5 h in the dark. Cells were then washed with PBS (×3) and illuminated or remained in darkness as described earlier. The media were then replaced by complete medium and cells were incubated for additional 24 h. DNA was then isolated, using Wizard® genomic DNA purification kit (Promega, Madison, Wis.) following the company's protocol and analyzed by gel electrophoresis (0.4% cross linked agarose, ethidium bromide staining).

αT3-1 cells [3] = assay: In vitro toxicity / phototoxicity (XTT cell survival); type: cell-based, mouse
Experimental: αT3-1 cells (50,000 cells/well) were plated in 96-well tissue culture plates in 0.1 mL of complete medium. After 24 h the medium was changed and cells were incubated in the same medium (without serum and phenol red) containing different concentrations of the tested compounds for 4 h at 37° C. The cells were then washed (×3) with PBS and illuminated (λmax=400 nm) in PBS. The fluence rate was 14.3 mW cm^−2 with a total fluence of 17 J cm^−2. Following illumination the media were replaced by complete medium and the plates were incubated for additional 24 h at 37° C. Cell survival was determined using the XTT (Biological Industries, Beit-Haemek, Israel) kit following the manufacture's protocol. Values are expressed as % survival.

[4] = target: T2, human serum albumin (HSA) (Homo sapiens, UniProt P02768); assay: Binding to HSA; type: in vitro ADME; conditions: 37° C., 3 h; FIG. 8
T2 construct: purchased Sigma, St. Louis, Mo
T2 sequence (P02768 25-609): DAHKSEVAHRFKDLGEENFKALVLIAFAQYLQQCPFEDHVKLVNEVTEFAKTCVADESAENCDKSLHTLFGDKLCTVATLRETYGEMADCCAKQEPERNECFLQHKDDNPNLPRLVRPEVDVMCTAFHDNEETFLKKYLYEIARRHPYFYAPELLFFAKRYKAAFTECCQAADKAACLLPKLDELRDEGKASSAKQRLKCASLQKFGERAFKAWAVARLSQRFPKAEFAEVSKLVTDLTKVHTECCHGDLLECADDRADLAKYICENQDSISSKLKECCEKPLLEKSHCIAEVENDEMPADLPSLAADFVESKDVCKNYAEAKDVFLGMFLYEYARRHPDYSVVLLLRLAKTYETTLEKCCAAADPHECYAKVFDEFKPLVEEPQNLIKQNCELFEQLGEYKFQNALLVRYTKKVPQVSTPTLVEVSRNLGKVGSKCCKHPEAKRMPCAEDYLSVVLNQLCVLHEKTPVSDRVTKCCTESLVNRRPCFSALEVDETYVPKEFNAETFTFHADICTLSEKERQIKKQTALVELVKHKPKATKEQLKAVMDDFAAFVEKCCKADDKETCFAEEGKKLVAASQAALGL
Experimental: The concentration of HSA in the solution was determined using a molar extinction coefficient of 39,000 M^−1 cm^−1 at 277.5 nm^33. The unbound compound was then separated from the HSA solution by applying it on to a Centricon® concentrator column (Amicon Inc., Beverly, Mass.) with a band pass membrane of […] according to the manufacture's protocol. The HSA bound compound (˜20 μL) was then precipitated by adding it to acetonitrile (1 mL). The supernatant was kept and the precipitate was dissolved in PBS (100 μL) and re-precipitated. The combined supernatants were evaporated, the residue was dissolved in water containing 0.1% TFA (buffer A) and analyzed by HPLC to determine the amount of the tested compounds. Results represent the mean of two experiments (FIG. 8).

LH release = assay: In vivo LH release after intraperitoneal administration; design: species or system rat; conditions: 20 nmol/rat
Experimental: The ability of [D-Lys^6(Emo)]GnRH to bind GnRH receptors and promote LH release in vitro, prompted the evaluation of its in vivo activity.
Blood samples were withdrawn by cardiac puncture under light ether anesthesia at the indicated time intervals, and serum LH levels were determined by RIA as described above (FIG. 6). Results are the mean±SEM of LH concentrations in the serum of five animals/experimental group. The LH concentration was determined using three different dilutions of each serum sample. Similar results were obtained in two other experiments.

[5] = Relative hydrophobicity by elution from RP-18 HPLC column; type: physicochemical; conditions: percent of buffer B in which the analog was eluted from RP-18 column
Excerpt: All chemicals and reagents were of analytical grade. Rink amide resin, 9-fluorenylmethoxycarbonyl (Fmoc) protected amino acid derivatives, and all the reagents for solid-phase peptide synthesis were purchased from Novabiochem (Läufelfingen, Switzerland). Side-chain protecting groups employed for peptide synthesis were as follows: Arg, 2,2,4,6,7-pentamethyldihydrobenzofuran-5-sulfonyl (Pbf); His, trityl (Trt); D-Lys, 4-methyltrityl (Mtt) or tert-butyloxycarbonyl (Boc); Trp, tert-butyloxycarbonyl (Boc); Ser and Tyr, tert-butyl (tBu). Reversed phase HPLC was performed on a Spectra-Physics SP-8800 liquid chromatography system equipped with an Applied Biosystems 757 variable wavelength absorbance detector. HPLC prepacked columns were: Lichrocart, containing Lichrosorb RP-18 (250×10 mm; 7 μm, Merck, Darmstadt, Germany) for semi-preparative purification and Lichrospher 100 RP-18 (250×4 mm; 5 μm, Merck, Darmstadt, Germany) and wide pore butyl C4 (250×4.6 mm; 5 μm, J. T. Baker Inc., Phillipsburg, N.J.) for analytical purposes. HPLC purification and analysis were achieved by using a linear gradient established between 0.1% trifluoroacetic acid […] in water as buffer A and 0.1% TFA in 75% aqueous acetonitrile as buffer B. Eluent composition was 10-100% B over 40 mlin, using RP-18 column, and a gradient of 0-100% B over 40 min employing a wide pore butyl (C4) column. N-(2noro-1,4-naphtoqumonyl)-β-alanine (NQ), 1,6,8-Trihydroxy-3-carboxylic acid-anthraquinone (Emo) and 2-hydroxymethyl-anthraquinone hemiglutarate (AntrQ) were synthesized as described^14,24,27 (for chemical structure see FIG. 1).

[6] = literature ref 5; cited from earlier work
[7] = literature ref 14; cited from earlier work
[8] = system: human breast and prostate cancer; conditions: literature ref 14; cited from earlier work
[9] = target: T3, rat pituitary GnRH receptor (rat, UniProt P30969 1-327); assay: displacement of 125I[D-Lys6]GnRH from rat pituitary membranes
T3 construct: whole, on cells; Native receptor; also called GnRH receptors; rat pituitary receptors
T3 sequence (looked up): T1 sequence (P30969 1-327)
Experimental: Briefly, membranes were incubated for 90 min at 4° C. with ¹²⁵I[D-Lys⁶]GnRH and with the unlabeled peptides. Non-specific binding was defined as the residual binding in the presence of excess [D-Lys⁶]GnRH (1 μM). Specific binding was calculated by subtracting the non-specific binding from the maximal binding, determined in the absence of any competing peptide. Results are the mean of two experiments carried out in triplicates. SEM values are omitted for clarity (FIG. 3).

[10] = target: T3, rat pituitary GnRH receptor; assay: displacement of 125I[D-Lys6]GnRH from proestrous rat pituitary membranes

`CC(C)C[C@H](NC(=O)[C@@H](CCCCN)NC(=O)[C@H](Cc1ccc(O)cc1)NC(=O)[C@H](CO)NC(=O)[C@@H](Cc1c[nH]c2ccccc12)NC(=O)[C@@H](Cc1ccccc1)NC(=O)[C@H]1CCC(=O)N1)C(=O)N[C@@H](CCCNC(=N)N)C(=O)N1CCC[C@H]1C(=O)NCC(N)=O` [[D-Lys^6]Antg, [D-Pyr^1, D-Phe^2, D-Trp^3, D-Lys^6]GnRH] ([d(pGlu)][dF][dW]SY[dK]LRPG-NH2) showed an IC50 [1] of 45 nM.

For `O=C(O)c1cc(O)c2c(c1)C(=O)c1cc(O)cc(O)c1C2=O` [emodic acid], the “DNA fragmentation in the dark” value (αT3-1 cells [2]; darkness) was “did not cause any DNA fragmentation”, the “DNA fragmentation upon illumination” value (αT3-1 cells [2]; illuminated) was “induced DNA fragmentation” and the “phototoxicity to αT3-1 cells” value (αT3-1 cells [3]; 10 μM, illuminated, FIG. 9) was “significant phototoxicity”. The “toxicity to αT3-1 cells in the dark” value (αT3-1 cells [3]; incubated in the dark) was “did not show any toxicity” and the “binding to HSA” value [4] was “binds to HSA”.

For “[D-Pyr^1, D-Phe^2, D-Trp^3, D-Lys^6]GnRH ([d(pGlu)][dF][dW]SY[dK]LRPG-NH2; SMILES CC(C)C[C@H](NC(=O)[C@@H](CCCCN)NC(=O)[C@H](Cc1ccc(O)cc1)NC(=O)[C@H](CO)NC(=O)[C@@H](Cc1c[nH]c2ccccc12)NC(=O)[C@@H](Cc1ccccc1)NC(=O)[C@H]1CCC(=O)N1)C(=O)N[C@@H](CCCNC(=N)N)C(=O)N1CCC[C@H]1C(=O)NCC(N)=O)”, the “binding affinity to GnRH receptors (in words)” value [1] was “lower binding affinity to GnRH receptor as compared to [D-Lys^6]GnRH”.

With `CC(C)C[C@H](NC(=O)[C@@H](CCCCNC(=O)c1cc(O)c2c(c1)C(=O)c1cc(O)cc(O)c1C2=O)NC(=O)[C@H](Cc1ccc(O)cc1)NC(=O)[C@H](CO)NC(=O)[C@@H](Cc1c[nH]c2ccccc12)NC(=O)[C@@H](Cc1ccccc1)NC(=O)[C@H]1CCC(=O)N1)C(=O)N[C@@H](CCCNC(=N)N)C(=O)N1CCC[C@H]1C(=O)NCC(N)=O` [[D-Lys^6(Emo)]Antg, [D-Pyr^1, D-Phe^2, D-Trp^3, D-Lys^6(Emo)]GnRH] ([d(pGlu)][dF][dW]SY[dK](X1)LRPG-NH2) the “binding affinity to GnRH receptors (in words)” value [1] was “lower binding affinity” and the IC50 [1] was 150 nM.

In the case of `CC(C)C[C@H](NC(=O)[C@@H](CCCCN)NC(=O)[C@H](Cc1ccc(O)cc1)NC(=O)[C@H](CO)NC(=O)[C@H](Cc1c[nH]c2ccccc12)NC(=O)[C@H](Cc1c[nH]cn1)NC(=O)[C@@H]1CCC(=O)N1)C(=O)N[C@@H](CCCNC(=N)N)C(=O)N1CCC[C@H]1C(=O)NCC(N)=O` [[D-Lys^6]GnRH], the “increase in serum LH levels at higher dose” value (LH release) is reported as “larger increase in serum LH levels” and the “Hydrophobicity (% B)” value [5] is reported as 37 % B.

For “pGlu-His-Trp-Ser-Tyr-Gly-Leu-Arg-Pro-Gly-NH2 [GnRH]”, the “half-life time in the general circulation” value [6] is given as 2 to 4 min.

For `CC(C)C[C@H](NC(=O)[C@@H](CCCCNC(=O)CCCC(=O)OCc1ccc2c(c1)C(=O)c1ccccc1C2=O)NC(=O)[C@H](Cc1ccc(O)cc1)NC(=O)[C@H](CO)NC(=O)[C@H](Cc1c[nH]c2ccccc12)NC(=O)[C@H](Cc1c[nH]cn1)NC(=O)[C@@H]1CCC(=O)N1)C(=O)N[C@@H](CCCNC(=N)N)C(=O)N1CCC[C@H]1C(=O)NCC(N)=O` [[D-Lys^6(AntrQ)]GnRH, [D-Lys^6(2-hydroxymethyl-anthra-quinone hemiglutarate)] GnRH], the “biological activity relative to the parent peptide” value [7] is given as “five-fold higher”, the “Hydrophobicity (% B)” value [5] is given as 84 % B and the “growth of human breast and prostate cancer” value [8] is given as “inhibited the growth”. For the same molecule, the “increase of binding affinity to GnRH receptors compared to the parent peptide” value [1] was 5 folds.

In the case of `CC(C)C[C@H](NC(=O)[C@@H](CCCCNC(=O)CCNC1=C(Cl)C(=O)c2ccccc2C1=O)NC(=O)[C@H](Cc1ccc(O)cc1)NC(=O)[C@H](CO)NC(=O)[C@H](Cc1c[nH]c2ccccc12)NC(=O)[C@H](Cc1c[nH]cn1)NC(=O)[C@@H]1CCC(=O)N1)C(=O)N[C@@H](CCCNC(=N)N)C(=O)N1CCC[C@H]1C(=O)NCC(N)=O` [[D-Lys^6(NQ)]GnRH, [D-Lys^6(N-(2-chloro-1,4-naphthoquinonyl)-β-alanyl)]GnRH], the “Hydrophobicity (% B)” value [5] is reported as 59 % B and the “increase of binding affinity to GnRH receptors compared to the parent peptide” value [1] is reported as 2 folds.

B1: [D-Lys^6(2-hydroxymethyl-anthraquinone hemiglutarate)]GnRH (peptide)
peptide: [pGlu]HWSY[dK](Glutaryl(OAqm))LRPG-NH2
notes: Quinone conjugate of [D-Lys6]GnRH; also called [D-Lys^6(AntrQ)]GnRH; [D-Lys^6(AntQ)]GnRH
B1 showed an IC50 [9] of 0.02 nM.

B2: [D-Lys^6(N-(2-chloro-1,4-naphthoquinonyl)-β-alanyl)]GnRH (peptide)
peptide: [pGlu]HWSY[dK](NQ)LRPG-NH2
notes: Quinone conjugate of [D-Lys6]GnRH; also called [D-Lys^6(NQ)]GnRH
In the case of B2, the IC50 [9] is reported as 0.09 nM.

B3: [D-Lys^6(1,3,8-trihydroxy-6-carboxy-anthraquinone)]GnRH (peptide)
peptide: [pGlu]HWSY[dK](Emo)LRPG-NH2
modifications: not fully specified; printed as [D-Lys^6(1,3,8-trihydroxy-6-carboxy-anthraquinone)]GnRH; reading uncertain
notes: Emodic acid conjugate of [D-Lys6]GnRH, an agonist; also called [D-Lys^6(Emo)]GnRH; [D-(Emo)]GnRH
Molecule B3 has an IC50 [10] of 2.6 nM and an IC50 [9] of 0.25 nM.
